Source: patent publication US9403874B2, “Peptides and use thereof” (IL YANG PHARM. CO.,LTD., priority 2012, dated 2016)

Key:
Assay type in all cases: cell-based
Details in all cases: 100 ng/me of peptide; EBV-infected B cells stimulated with anti-CD150; ELISA of culture supernatant
[1] = test system: IL-10; assay: Reduction of IL-10 secretion in activated B cells (ELISA)
Description: (§1) In order to determine the activity of the novel peptides synthesized in Example 1 for reducing the secretion of inflammatory cytokines, the activated pathogenic B cells were treated with each of the 18 types of synthesized novel peptides and the reduction in secretion of inflammatory cytokines from the B cells was monitored.
(§2) Specifically, in order to determine whether the novel peptides could weaken the pathogenic B cells which are involved in the development of disease symptoms, the in vitro B cells model which is similar to the joint infiltrative B cells of rheumatoid arthritis was used. The activated pathogenic B cell was generated by stimulating Ebstein Barr virus (EBV)-infected B cells with anti-CD150 antibodies, and the cells were treated with […] of each of the 18 types of novel peptide.
(§3) In order to confirm the effect of 18 types of novel peptides in reducing inflammatory cytokines, the secretion amount of various cytokines (IL-1A, IL-1B, IL-2, IL-4, IL-5, IL-6, IL-8, IL-10, IL-12A, IL-13, IL-17A, GM-CSF, IL-34) secreted from the activated B cells was measured. The supernatants of B cell culture were analyzed enzyme-linked immunosorbent assay (ELISA), and the difference in absorbance (450 nm-570 nm) of the color developing reagent was measured as test results. Based on the measured difference in absorbance (450 nm-570 nm) of the color developing reagent, the absorbance of cytokines secreted when treated with the 18 types of novel […] was calculated in percentage, while setting the absorbance corresponding to the cytokines secreted from the activated B cells stimulated by anti-CD150 as 100%.

[2] = test system: IL-1B; assay: Reduction of IL-1B secretion in activated B cells (ELISA)
Description: as §1, §2, §3

[3] = test system: IL-8; assay: Reduction of IL-8 secretion in activated B cells (ELISA)
Description: as §1, §2, §3

[4] = test system: IL-13; assay: Reduction of IL-13 secretion in activated B cells (ELISA)
Description: as §1, §2, §3

[5] = test system: IL-17A; assay: Reduction of IL-17A secretion in activated B cells (ELISA)
Description: as §1, §2, §3

[6] = test system: IL-4; assay: Reduction of IL-4 secretion in activated B cells (ELISA)
Description: as §1, §2, §3

[7] = test system: IL-2; assay: Reduction of IL-2 secretion in activated B cells (ELISA)
Description: as §1, §2, §3

[8] = test system: IL-34; assay: Reduction of IL-34 secretion in activated B cells (ELISA)
Description: as §1, §2, §3

[9] = test system: IL-6; assay: Reduction of IL-6 secretion in activated B cells (ELISA)
Description: as §1, §2, §3

[10] = test system: IL-1A; assay: Reduction of IL-1A secretion in activated B cells (ELISA)
Description: as §1, §2, §3

[11] = test system: GM-CSF; assay: Reduction of GM-CSF secretion in activated B cells (ELISA)
Description: as §1, §2, §3

[12] = test system: IL-5; assay: Reduction of IL-5 secretion in activated B cells (ELISA)
Description: as §1, §2, §3

[13] = test system: IL-12A; assay: Reduction of IL-12A secretion in activated B cells (ELISA)
Description: as §1, §2, §3

| Substance | Inhibition rate of each cytokine compared to CD150-stimulated EBV-t B cells (%) IL-10 [1] | Inhibition rate of each cytokine compared to CD150-stimulated EBV-t B cells (%) IL-1B [2] | Inhibition rate of each cytokine compared to CD150-stimulated EBV-t B cells (%) IL-8 [3] | Inhibition rate of each cytokine compared to CD150-stimulated EBV-t B cells (%) IL-13 [4] | Inhibition rate of each cytokine compared to CD150-stimulated EBV-t B cells (%) IL-17A [5] | Inhibition rate of each cytokine compared to CD150-stimulated EBV-t B cells (%) IL-4 [6] | Inhibition rate of each cytokine compared to CD150-stimulated EBV-t B cells (%) IL-2 [7] | Inhibition rate of each cytokine compared to CD150-stimulated EBV-t B cells (%) IL-34 [8] | Inhibition rate of each cytokine compared to CD150-stimulated EBV-t B cells (%) IL-6 [9] | Inhibition rate of each cytokine compared to CD150-stimulated EBV-t B cells (%) IL-1A [10] | Inhibition rate of each cytokine compared to CD150-stimulated EBV-t B cells (%) GM-CSF [11] | Inhibition rate of each cytokine compared to CD150-stimulated EBV-t B cells (%) IL-5 [12] | Inhibition rate of each cytokine compared to CD150-stimulated EBV-t B cells (%) IL-12A [13] |
| --- | --- | --- | --- | --- | --- | --- | --- | --- | --- | --- | --- | --- | --- |
| RTDG (SIS-1#7 peptide) | 5.3% | 5.3% | 3.2% | 3.6% | 9.5% | 10.2% | 7.4% | 2.9% | 11.8% | 6.3% | 4.5% | 3.5% | 11.4% |
| RDGRTD (SIS-1#17 peptide) | 15.8% | 20.5% | 22.0% | 14.8% | 23.8% | 32.0% | 17.0% | 20.8% | 16.8% | 18.8% | 14.8% | 14.0% | 16.0% |
| TDG (SIS-1#11 peptide) | 4.2% | 2.7% | 4.2% | 5.9% | 6.3% | 19.5% | 3.2% | 7.2% | 8.1% | 6.0% | 4.2% | 10.8% | 6.8% |
| MSLPSPRDGRTDG (SIS-1#4 peptide) | 18.0% | 16.5% | 32.0% | 23.1% | 43.0% | 20.8% | 18.8% | 16.8% | 32.3% | 18.1% | 18.5% | 20.4% | 33.9% |
